Literature values as cited in US7101842B2, “Targeted delivery of drugs for the treatment of parasitic infections” (priority 2001, dated 2006).

System: trypanosomiasis
Settings: patients treated for sleeping sickness

Q: Which “fatal encepholopathy in recipients” value does the source give for `Nc1nc(N)nc(Nc2ccc([As]3SCC(CO)S3)cc2)n1` (centres unmarked) [melarsopral] here?
A: 5–7%

Q: What about the relapse rates of the same molecule?
A: ≤ 10%
